The values below come from ChEMBL document CHEMBL1150991, “Comparative molecular field analysis of benzopyran-4-carbothioamide potassium channel openers” (Bioorg Med Chem Lett, 1994).

Structures are written as SMILES.

The species entered for one assay is Rattus norvegicus. The assay is described as follows: Molar concentration required to relax rat aorta precontracted with 30 mM KCL by 50% of intrinsic activity. In kind it is functional.
Consider `CNC(=S)C1=CC(C)(C)Oc2ccc(C(=O)OC)cc21`, for which the midpoint of the response, the EC50, lay at 95.5 nM.

For a further assay, the species on record is Rattus norvegicus. The assay is described as follows: Molar concentration required to relax rat aorta precontracted with 30 mM KCL by 50% of intrinsic activity (calculated). Type of assay: functional.
Consider `C/N=C(/S)C1=CC(C)(C)Oc2ccc(Cl)cc21`, for which the EC50 (usually the midpoint of the concentration-response curve) was 28.8 nM.
Still for that read-out and setting: the figure for `C/N=C(/S)C1=CC(C)(C)Oc2ccc(C(F)(F)C(F)(F)F)cc21` is 11.7 nM; for `C/N=C(/S)C1=CC(C)(C)Oc2ccc([N+](=O)[O-])cc21` it is 1.29 nM.
Still for that read-out and setting: the figure for `C/N=C(/S)C1=CC(C)(C)Oc2ccc(S(C)(=O)=O)cc21` is 490 nM.
In the case of `CNC(=S)C1=CC(C)(C)Oc2ccc(C(=O)OC)cc21`, the EC50 is 85.1 nM.
Same read-out and setting: the figure for `CCc1ccc2c(c1)C(/C(S)=N\C)=CC(C)(C)O2` is 282 nM; for `C/N=C(/S)C1=CC(C)(C)Oc2ccccc21` it is 4470 nM.
On the same count and under the same terms, the figure for `C/N=C(/S)C1=CC(C)(C)Oc2ccc(OC(F)(F)F)cc21` is 3.98 nM.
Same read-out and setting: the figure for `C/N=C(/S)C1=CC(C)(C)Oc2ccc(Br)cc21` is 15.1 nM; for `C/N=C(/S)C1=CC(C)(C)Oc2ccc(C#N)cc21` it is 21.4 nM.
For the molecule `C/N=C(/S)C1=CC(C)(C)Oc2ccc(C(F)(F)F)cc21`, the EC50 was 2.19 nM.
Regarding `C/N=C(/S)C1=CC(C)(C)Oc2ccc(S(=O)(=O)c3ccccc3)cc21`, the EC50 is 19.5 nM.
On the same count and under the same terms, the figure for `CNC(=S)C1=CC(C)(C)Oc2ccc(OC)cc21` is 457 nM.
